Test results as given in patent US12616704B2, “Cannabichromene formulation for pain management” (Zyus Life Sciences Inc., priority 2020, dated 2026).

Assays:
Type in all cases: in vivo, C57BL/6J mice
[1] = Welfare observations in OIPN study; details: Duloxetine 25 mg/kg i.p., OIPN mice
From the text: Seven mice were disqualified from further study due to showing too mild cool allodynia.

[2] = Body weight in OIPN study; details: OIPN mice; CBC 20 mg/kg p.o., Duloxetine 25 mg/kg i.p.
Protocol: Body Weight—Animal body weights were measured before assigning the treatment groups and then on each day of the study. The last body weight measurement was performed upon endpoint sampling. Terminal body weights were not collected from animals found dead or euthanized moribund.

[3] = system: Oxaliplatin-induced cool allodynia; assay: Acetone Cooling Test (ACT) in oxaliplatin-induced polyneuropathy (OIPN) model; details: CBC 20 mg/kg p.o., Duloxetine 25 mg/kg i.p.
Protocol: Model Induction—Mouse Oxaliplatin-induced polyneuropathy (OIPN) model was induced over a three-week period. The day of first Oxaliplatin (OXP) injection is referred to as day 0 (DO). OXP was administered as six separate intraperitoneal injections at 4.5-mg/kg (10 ml/kg, i.p.) to Groups 2, 3, and 4 on DO, D4, D8, D12, D16, and D20. The cumulative OXP dose was thus 27 mg/kg. The in-life procedures, such as observations, tests, and/or measurements were performed by Charles River Discovery Services with blinded methods. The mice were distributed into 4 groups (n=8 for Vehicle Control; n=10 OXP Control; n=20 CBC; n=15 Duloxetine).
Treatments—Following exposure to OXP for 20 days, Groups 3 and 4 were treated with CBC (20 mg/kg, p.o.) and Duloxetine (25 mg/kg, i.p.), respectively, for 10 consecutive days. In a similar regimen Groups 1 and 2 (Vehicle Control and OXP-Vehicle Control, respectively) received a corresponding volume of 5% glucose solution at an administration volume of 10 mL/kg.
Acetone Cooling Test (ACT) —To produce a measurable cooling sensation, 10-15 μL of acetone was applied onto the medial area of the plantar hind paw with a 0.5 ml insulin syringe. Responses of a mouse to acetone were monitored for 20 s, and a score given based on a four-point scale (0-3 points), according to the response intensity, continuation, and briskness. The higher the score, the greater the cool allodynia sensed by the mouse.
Within one test timepoint, a total of 3 trials were performed per paw with a minimum gap of 5 min between testing. The three individual scores were added up to obtain a single score over a cumulative period of 60 s. Thus, for one test, the minimum score of one paw is 0 (no cool allodynia), while the maximum possible score is 9 (intensive cool allodynia). The total scores for the left and right paws were averaged to accomplish a single result value per mouse at each timepoint.
The Acetone Cooling Test was performed prior to OXP administration (Baseline), following the last OXP injection (D21), one day after the first CBC, Duloxetine, or Vehicle treatment (D22), and after a 10-day daily dosing of CBC, Duloxetine, or Vehicle treatment (D31). Taken together, the ACT was used to assess chemotherapy-induce cool allodynia as stated in the schedule:
On D22: At 60 min after the first Vehicle/CBC dose and 120 min after Dulx dose.
On D31: At 60 min after the last Vehicle/CBC and 120 min after Dulx dose.

CNCC[C@H](Oc1cccc2ccccc12)c1cccs1 [Duloxetine, reference compound]
share of the group with adverse effects (enlarged staring eyes and clearly decreased activity) [1]: 30%
body weight development from D22 onwards [2]: slower increase in body weight
ACT score compared with OXP-Vehicle control ([3]; D22, acute single dose): statistically significant and comparable reduction in cool allodynia
ACT score compared with OXP-Vehicle control ([3]; D31, chronic repeated dosing): maintained a significant reduction in cool allodynia
ACT score, D31 vs. D21 ([3]; within group, 10-day repeated dosing): significant reduction of cool allodynia
ACT score, reversion of cool allodynia D22 vs. D21 pre-treatment: p ([3]; within group, single dose): < 0.01
